Where two headings read alike, the source gives them in different places.
Assay: Solubility of abrasive-grain material at normal temperature
Format: physicochemical
[1] = abrasive-grain material, normal temperature (25° C.)

Structure (SMILES) | Solubility | Solubility [1]
O=S(=O)([O-])[O-].[Cu+2] [Example 6, CuSO4] | 18.2% | –
O=C(O)CC(=O)O [Example 12, malonic acid] | – | 32.2%
[Cl][Cu][Cl] [Example 5, CuCl2] | – | 42.8%
O=S(=O)([O-])[O-].O=S(=O)([O-])[O-].O=S(=O)([O-])[O-].[Ce+3].[Ce+3] [Example 4, Ce2(SO4)3] | – | 7.59%
OC[C@H]1O[C@@](CO)(O[C@H]2O[C@H](CO)[C@@H](O)[C@H](O)[C@H]2O)[C@@H](O)[C@@H]1O [Example 11, sucrose] | – | 67.0%

Source: patent US6656022B2, “Method for polishing a semiconductor substrate member” (Hitachi, Ltd., priority 2001, dated 2003)
